Test results as given in US4711895A, “4-hydroxy-2-cyclopentenone, process for production thereof, pharmaceutical composition comprising it” (Teijin Limited, priority 1984, dated 1987).
Values after ≈ are worked out from the molar mass of the structure shown. Like-named read-outs stand apart in the source and are kept apart here.

Key:
L1210 leukemia cells = assay: Action of inhibiting proliferation of L1210 leukemia cell; assay type: cell-based; settings: RPMI medium, 10% FCS, 37° C., 4 days, trypan blue
Method: Measurement of the action of inhibiting Proliferation of L1210 leukemia cell
L1210 leukemia cells were added to an RPMI medium containing 10% FCS (fetal calf serum), and the concentration of the cells was adjusted to […]. Each of the test compounds shown in Table I was dissolved in 99.5% ethanol. Prior to use, the final concentration of the ethanol solution was adjusted to less than 0.1%, and it was added to the culture medium. The culture medium was then maintained at 37° C. in a stationary condition for 4 days. After the cultivation, the number of surviving cells was measured by dyeing with trypan blue. As a control, 0.1% ethanol was used. A dose-reaction curve plotted from the ratios of proliferation against the control, and IC50 was determined.

[1] = system: P388 mouse leukemia cells; assay: Antitumor effect on P388 mouse leukemia tumor in ICR mice; assay type: in vivo; settings: i.p., 5 days
Method: Measurement of the antitumor effect on P338 mouse leukemia tumor
1×10^5 P388 mouse leukemia cells were intraperitoneally administered to ICR mice. After the lapse of 24 hours, each of the test compounds shown in Table II was intraperitoneally administered to the mice for 5 days. The periods of survival of these animals were examined and the increase of their life span (ILS%) were determined.

[2] = Mus musculus, 96 h, read-out: IC50

SMILES | IC50 (L1210 leukemia cells; [2]) [µg/mL] | Increase of life span ILS (%) ([1]; 15 mg/kg/day) | Survival ([1]; 15 mg/kg/day) [days] | Increase of life span ILS (%) ([1]; 5 mg/kg/day) | Survival ([1]; 5 mg/kg/day) [days] | IC50 (L1210 leukemia cells) [µg/mL] | Increase of life span ILS (%) ([1]; 2.5 mg/kg/day) | Survival ([1]; 2.5 mg/kg/day) [days] | Increase of life span ILS (%) ([1]; 10 mg/kg/day) | Survival ([1]; 10 mg/kg/day) [days]
CC(C)=CCCC(C)=CC(O)C1C(=O)C=CC1(O)CCCCOc1ccccc1 (stereo not drawn) [Compound 228, 4-(4-phenoxybutyl)-4-hydroxy-5-(3,7-dimethyl-1-hydroxy-2,6-octadiene)-2-cyclopentenone] | 0.4 (≈ 1 µM) | 4.1 | 10.2 ± 0.9 | – | – | – | – | – | – | –
COC(=O)CCCCCC(O)C1C(=O)C(Cl)=CC1(O)CCCc1ccc(OC)c(OC)c1 (stereo not drawn) [Compound 226, 2-chloro-4-hydroxy-4-[3-(3,4-dimethoxyphenyl)propyl]-5-(1-hydroxy-6-methoxycarbonylhexyl)-2-cyclopentenone] | 0.2 (≈ 0.426 µM) | – | – | 10.0 | 11.0 ± 0 | – | – | – | – | –
COC(=O)CCCCC/C=C1/C(=O)C(Cl)=CC1(O)CCC(C)CCCC(C)C (stereo not drawn) [Compound 158, 2-chloro-4-(3,7-dimethyloctyl)-4-hydroxy-5-[(E)-6-methoxycarbonylhexylidene]-2-cyclopentenone] | 0.025 (≈ 0.0605 µM) | – | – | – | – | – | – | – | – | –
O=C1C=CC(O)(CCCCOc2ccccc2)C1=C/C=C/C(O)CCCO (stereo not drawn) [Compound 148] | – | – | – | 32.7 | 13.0 ± 1.4 | 1.5 (≈ 4.03 µM) | 15.3 | 11.3 ± 0.5 | 29.6 | 12.7 ± 0.7
CCCCCCCCC1(O)C=C(Cl)C(=O)C1=CCCCCCC(=O)OC (stereo not drawn) [Compound 154, 2-chloro-4-hydroxy-5-(6-methoxycarbonylhexylidene)-4-octyl-2-cyclopentenone] | 0.03 (≈ 0.0779 µM) | – | – | – | – | – | – | – | 7.1 | 10.5 ± 0.8
COC(=O)CCCCC/C=C1\C(=O)C(Cl)=CC1(O)CCC(C)CCCC(C)C (stereo not drawn) [Compound 156, 2-chloro-4-(3,7-dimethyloctyl)-4-hydroxy-5-[(Z)-6-methoxycarbonylhexylidene]-2-cyclopentenone] | 0.035 (≈ 0.0847 µM) | – | – | – | – | – | – | – | – | –
COC(=O)CCCCCC=C1C(=O)C(Cl)=CC1(O)CCCc1ccc(OC)c(OC)c1 (stereo not drawn) [Compound 152, 2-chloro-4-hydroxy-4-[3-(3,4-dimethoxyphenyl)propyl]-5-(6-methoxycarbonylhexylidene)-2-cyclopentenone] | 0.06 (≈ 0.133 µM) | – | – | – | – | – | – | – | 19.4 | 11.7 ± 1.1
CCCCCCCC[C@@]1(O)C=CC(=O)/C1=C/CCCCCC(=O)OC [Compound 142, (4R)-5-[(E)-6-methoxycarbonylhexylidene]-4-hydroxy-4-octyl-2-cyclopentenone] | 0.15 (≈ 0.428 µM) | – | – | 5.4 | 10.3 ± 0.5 | – | – | – | 15.3 | 11.3 ± 0.5
CCCCCCCC[C@@]1(O)C=CC(=O)/C1=C\CCCCCC(=O)OC [Compound 144, (4R)-5-[(Z)-6-methoxycarbonylhexylidene]-4-hydroxy-4-octyl-2-cyclopentenone] | 0.15 (≈ 0.428 µM) | 12.5 | 11.7 ± 0.5 | 2.9 | 10.7 ± 0.5 | – | – | – | 17.3 | 12.2 ± 1.2
